ChEMBL document CHEMBL4052827, “Discovery of Tetrahydroisoquinoline-Containing CXCR4 Antagonists with Improved in Vitro ADMET Properties” (J Med Chem, 2018)

Assays:
[1] = Metabolic stability in human liver microsomes assessed as parent compound remaining at 0.5 uM after 10 mins in presence of NADPH by LC-MS/MS analysis
[2] = Permeability of the compound at pH 7.4 at 100 uM after 4 hrs by PAMPA
Cytochrome P450 2D6 = Cytochrome P450 2D6 (Homo sapiens, UniProt P10635); test: Inhibition of recombinant human CYP2D6 expressed in microsomes of insect cells using AMMC as substrate preincubated for 30 mins followed by NADP addition after 45 mins by fluorescence analysis
Sequence of Cytochrome P450 2D6 (P10635 whole entry): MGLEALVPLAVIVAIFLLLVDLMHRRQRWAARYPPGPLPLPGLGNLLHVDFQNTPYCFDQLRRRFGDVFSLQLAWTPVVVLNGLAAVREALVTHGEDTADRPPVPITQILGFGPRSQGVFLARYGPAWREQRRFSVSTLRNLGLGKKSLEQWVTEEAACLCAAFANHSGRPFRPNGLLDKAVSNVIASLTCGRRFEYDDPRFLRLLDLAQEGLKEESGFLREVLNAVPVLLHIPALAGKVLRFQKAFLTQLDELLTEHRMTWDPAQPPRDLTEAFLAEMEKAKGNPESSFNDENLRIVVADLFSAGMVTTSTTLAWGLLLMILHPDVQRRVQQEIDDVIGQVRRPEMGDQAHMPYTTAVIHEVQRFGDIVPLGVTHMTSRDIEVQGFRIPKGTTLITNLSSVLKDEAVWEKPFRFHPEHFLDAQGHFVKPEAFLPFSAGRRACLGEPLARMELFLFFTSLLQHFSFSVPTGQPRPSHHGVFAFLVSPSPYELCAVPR

Cytochrome P450 2C8 = target: T1, Cytochrome P450 2C8 (Homo sapiens, UniProt P10632); test: Inhibition of CYP2C8 (unknown origin)
T1 sequence (P10632 whole entry): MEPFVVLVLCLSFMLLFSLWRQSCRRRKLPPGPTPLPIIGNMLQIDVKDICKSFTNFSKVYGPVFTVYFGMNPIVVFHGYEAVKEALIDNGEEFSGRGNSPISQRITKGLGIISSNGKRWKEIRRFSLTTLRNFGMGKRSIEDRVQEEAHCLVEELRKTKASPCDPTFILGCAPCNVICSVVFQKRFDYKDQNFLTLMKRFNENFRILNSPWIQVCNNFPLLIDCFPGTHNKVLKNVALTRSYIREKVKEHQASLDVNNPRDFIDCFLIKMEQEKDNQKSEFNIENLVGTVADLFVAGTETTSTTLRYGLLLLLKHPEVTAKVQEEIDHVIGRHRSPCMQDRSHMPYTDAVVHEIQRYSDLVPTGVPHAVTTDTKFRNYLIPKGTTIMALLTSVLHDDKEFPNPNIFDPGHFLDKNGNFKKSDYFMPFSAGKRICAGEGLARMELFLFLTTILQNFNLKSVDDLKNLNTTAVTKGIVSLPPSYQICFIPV

[3] = Antagonist activity at mAChR in human CCRF-CEM cells assessed as decrease in acetylacholine-stimulated Ca2+ flux preincubated for 25 mins followed by acetylacholine addition measured for 90 secs by calcium dye-based fluorescence assay; assay type: cell-based
[4] = Inhibition of CYP1A4 (unknown origin)
[5] = Metabolic stability in mouse liver microsomes assessed as parent compound remaining at 0.5 uM after 10 mins in presence of NADPH by LC-MS/MS analysis
Cytochrome P450 2C19 = Cytochrome P450 2C19 (Homo sapiens, UniProt P33261); test: Inhibition of CYP2C19 (unknown origin)
Sequence of Cytochrome P450 2C19 (P33261 whole entry): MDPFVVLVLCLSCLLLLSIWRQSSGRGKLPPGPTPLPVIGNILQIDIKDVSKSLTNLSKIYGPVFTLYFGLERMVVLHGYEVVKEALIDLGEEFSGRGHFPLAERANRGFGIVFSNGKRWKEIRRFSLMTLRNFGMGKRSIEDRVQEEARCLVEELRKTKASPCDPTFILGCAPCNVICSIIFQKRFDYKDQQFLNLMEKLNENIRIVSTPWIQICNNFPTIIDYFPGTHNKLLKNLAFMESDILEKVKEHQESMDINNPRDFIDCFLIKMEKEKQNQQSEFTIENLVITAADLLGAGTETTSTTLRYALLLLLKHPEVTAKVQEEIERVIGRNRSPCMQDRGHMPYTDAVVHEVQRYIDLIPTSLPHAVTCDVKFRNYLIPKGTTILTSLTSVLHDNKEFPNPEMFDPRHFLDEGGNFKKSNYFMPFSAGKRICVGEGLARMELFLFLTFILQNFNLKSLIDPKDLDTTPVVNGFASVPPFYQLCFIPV

[6] = target: T2, C-X-C chemokine receptor type 4 (Homo sapiens, UniProt P61073); test: Antagonist activity at human CXCR4 in CCRF-CEM cells assessed as decrease in SDF-1alpha stimulated Ca2+ flux preincubated for 25 mins followed by SDF-1alpha addition measured for 90 secs by calcium dye-based fluorescence assay; assay type: functional, cell-based
T2 sequence (P61073 whole entry): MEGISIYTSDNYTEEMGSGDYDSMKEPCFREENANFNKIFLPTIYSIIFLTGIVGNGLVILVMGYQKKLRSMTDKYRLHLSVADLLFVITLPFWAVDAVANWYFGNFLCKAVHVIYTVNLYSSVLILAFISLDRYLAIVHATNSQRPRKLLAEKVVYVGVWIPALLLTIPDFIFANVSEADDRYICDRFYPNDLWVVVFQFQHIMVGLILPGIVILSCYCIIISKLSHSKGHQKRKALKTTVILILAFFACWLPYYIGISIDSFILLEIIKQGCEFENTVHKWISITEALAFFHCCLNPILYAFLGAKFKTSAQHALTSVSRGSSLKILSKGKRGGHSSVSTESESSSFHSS

[7] = Agonist activity at mAChR in human CCRF-CEM cells assessed as induction of Ca2+ flux measured for 90 secs by calcium dye-based fluorescence assay; assay type: cell-based
[8] = target: T2, C-X-C chemokine receptor type 4; test: Agonist activity at CXCR4 in human CCRF-CEM cells assessed as induction of Ca2+ flux measured for 90 secs by calcium dye-based fluorescence assay; assay type: functional, cell-based
Cytochrome P450 2C9 = Cytochrome P450 2C9 (Homo sapiens, UniProt P11712); test: Inhibition of CYP2C9 (unknown origin)
Sequence of Cytochrome P450 2C9 (P11712 whole entry): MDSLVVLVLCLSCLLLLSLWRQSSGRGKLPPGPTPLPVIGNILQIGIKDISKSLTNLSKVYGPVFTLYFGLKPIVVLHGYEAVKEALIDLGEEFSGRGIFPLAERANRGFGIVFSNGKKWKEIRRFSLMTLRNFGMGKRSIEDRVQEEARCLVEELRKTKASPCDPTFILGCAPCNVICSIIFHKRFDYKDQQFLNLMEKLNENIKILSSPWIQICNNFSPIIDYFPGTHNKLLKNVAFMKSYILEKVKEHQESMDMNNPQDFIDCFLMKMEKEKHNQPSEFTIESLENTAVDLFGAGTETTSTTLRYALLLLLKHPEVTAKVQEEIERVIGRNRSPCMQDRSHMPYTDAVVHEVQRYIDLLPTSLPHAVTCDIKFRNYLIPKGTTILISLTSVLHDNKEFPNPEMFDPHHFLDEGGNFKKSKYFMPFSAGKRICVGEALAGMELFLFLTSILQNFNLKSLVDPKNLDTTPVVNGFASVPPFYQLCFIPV

[9] = Permeability of the compound at pH 5.5 at 100 uM after 4 hrs by PAMPA
Cytochrome P450 3A4 = Cytochrome P450 3A4 (Homo sapiens, UniProt P08684); test: Inhibition of CYP3A4 (unknown origin)
Sequence of Cytochrome P450 3A4 (P08684 whole entry): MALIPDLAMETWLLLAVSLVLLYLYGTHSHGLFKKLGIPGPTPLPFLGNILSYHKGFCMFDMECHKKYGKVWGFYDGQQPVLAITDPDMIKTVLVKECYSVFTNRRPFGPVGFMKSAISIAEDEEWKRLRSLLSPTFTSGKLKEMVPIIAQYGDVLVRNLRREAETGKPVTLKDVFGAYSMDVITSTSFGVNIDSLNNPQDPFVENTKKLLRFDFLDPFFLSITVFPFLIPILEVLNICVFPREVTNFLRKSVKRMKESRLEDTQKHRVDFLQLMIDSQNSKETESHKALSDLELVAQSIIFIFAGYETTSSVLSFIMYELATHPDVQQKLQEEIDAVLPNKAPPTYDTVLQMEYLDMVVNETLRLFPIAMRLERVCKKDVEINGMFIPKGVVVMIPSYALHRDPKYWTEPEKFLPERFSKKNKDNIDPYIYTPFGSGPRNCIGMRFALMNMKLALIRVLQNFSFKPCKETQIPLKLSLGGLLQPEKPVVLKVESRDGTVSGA

[10] = target: C-X-C chemokine receptor type 4 (Mus musculus, UniProt P70658); test: Antagonist activity at mouse CXCR4
Sequence of C-X-C chemokine receptor type 4 (Mus musculus, UniProt P70658) (P70658 whole entry): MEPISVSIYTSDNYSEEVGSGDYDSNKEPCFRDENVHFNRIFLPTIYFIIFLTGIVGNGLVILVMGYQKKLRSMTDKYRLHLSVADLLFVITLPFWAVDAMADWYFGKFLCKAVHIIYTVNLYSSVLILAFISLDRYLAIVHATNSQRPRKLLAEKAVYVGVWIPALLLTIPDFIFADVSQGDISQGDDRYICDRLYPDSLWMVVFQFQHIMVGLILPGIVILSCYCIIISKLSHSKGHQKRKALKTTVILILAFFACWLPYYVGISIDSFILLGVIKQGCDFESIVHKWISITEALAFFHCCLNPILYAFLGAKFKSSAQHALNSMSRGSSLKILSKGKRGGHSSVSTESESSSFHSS

[11] = Half life in rat Plasma; assay type: ADME, cell-free
[12] = Half life in human liver microsomes; assay type: ADME, microsome
Homo sapiens = species: Homo sapiens; test: Inhibition of chemokine receptor (unknown origin) at 10 uM

Row | SMILES | remaining at 10 min, 0.5 µM [1] [%] | Papp at 4 h, 100 µM [2] [×10⁻⁶ cm/s] | IC50 (Cytochrome P450 2D6) [µM] | IC50 (Cytochrome P450 2C8) [µM] | IC50 [3] [µM] | IC50 [4] [µM] | remaining at 10 min, 0.5 µM [5] [%] | IC50 (Cytochrome P450 2C19) [µM] | IC50 [6] [µM] | EC50 [7] [µM] | EC50 [8] [µM] | IC50 (Cytochrome P450 2C9) [µM] | Papp at 4 h, 100 µM [9] [×10⁻⁶ cm/s] | IC50 (Cytochrome P450 3A4) [µM] | IC90 [6] [µM] | IC50 [10] [µM] | half-life [11] [h] | half-life [12] [h] | inhibition (Homo sapiens) [%]
1 | CC(C)(CCN(C[C@H]1Cc2ccccc2CN1)[C@H]1CCCc2cccnc21)CNC1CCC(F)(F)CC1 | 16.1 | 2.2 | 2.04 | < 5 | 18.8 | < 5 | 16.8 | < 5 | 0.168 | > 30 | > 30 | < 5 | 1.75 |  |  |  |  |  | 
2 | c1ccc(CN(CCCCN(C[C@H]2Cc3ccccc3CN2)[C@H]2CCCc3cccnc32)Cc2ccccn2)nc1 | 0.548 | 29.4 | 1.16 |  | 12.9 |  | 0.374 |  | 0.664 | > 30 | > 30 |  | 4.8 |  |  |  |  |  | 
3 | C(=C\CN(C[C@H]1Cc2ccccc2CN1)[C@H]1CCCc2cccnc21)/CNC1CCOCC1 | 69.9 | 43.4 | 2.61 | < 5 | 5.61 | < 5 | 10 | < 5 |  | > 30 | > 30 | < 5 | 10.5 |  | 0.191 | 0.00924 |  |  | 
4 | c1cncc(CN(CCCCN(C[C@H]2Cc3ccccc3CN2)[C@H]2CCCc3cccnc32)Cc2cccnc2)c1 | 0.432 | 43.5 | 0.348 |  | 11.5 |  | 1.4 |  | 0.471 | > 30 | > 30 |  | 9.1 |  |  |  |  |  | 
5 | C(=C\CN(C[C@H]1Cc2ccccc2CN1)[C@H]1CCCc2cccnc21)/CNCC1CCOCC1 | 74.5 | 12.2 | 3.32 | < 5 | 19.9 | < 5 | 32.3 | < 5 |  | > 30 | > 30 | < 5 | 3.35 |  | 0.195 | 0.00547 |  |  | 
6 | c1ccc2c(c1)CN[C@@H](CN(CCCCN(Cc1ccncc1)Cc1ccncc1)[C@H]1CCCc3cccnc31)C2 | 0.521 | 77.4 | 0.12 |  | 11.4 |  | 1.55 |  | 0.832 | > 30 | > 30 |  | 18 | 0.622 |  |  |  |  | 
7 | NCc1ccccc1CN(C[C@H]1Cc2ccccc2CN1)[C@H]1CCCc2cccnc21 | 50.5 | 21.4 | 0.318 |  | 1.2 |  | 1.29 |  | 0.0508 | > 30 | > 30 |  | 18.4 |  |  |  |  |  | 
8 | c1ccc2c(c1)CN[C@@H](CN(CCCCNCC1CCCCC1)[C@H]1CCCc3cccnc31)C2 | 50 | 0.9 | 0.354 |  | > 16.7 |  | 41.8 |  | 0.158 | > 30 | > 30 |  | 2.1 |  |  |  |  |  | 
9 | CC1(C)CCC(NC/C=C/CN(C[C@H]2Cc3ccccc3CN2)[C@H]2CCCc3cccnc32)CC1 | 42 |  | 0.66 |  | 2.45 |  | 7.71 |  |  | > 30 | > 30 |  |  | 0.99 |  |  |  |  | 
10 | FC1(F)CCC(NC/C=C/CN(C[C@H]2Cc3ccccc3CN2)[C@H]2CCCc3cccnc32)CC1 | 31.7 | 4.9 | 1.45 |  | 6.98 |  | 2.12 |  |  | > 30 | > 30 |  | 0.9 |  |  |  |  |  | 
11 | C(=C\CN(C[C@H]1Cc2ccccc2CN1)[C@H]1CCCc2cccnc21)/CNCc1ccccn1 | 31.2 | 5 | 0.709 |  | 22 |  | 2.98 |  |  | > 30 | > 30 |  | 1.8 |  |  |  |  |  | 

The next lines start with the values.

Row | remaining at 10 min, 0.5 µM [1] [%] | Papp at 4 h, 100 µM [2] [×10⁻⁶ cm/s] | IC50 (Cytochrome P450 2D6) [µM] | IC50 (Cytochrome P450 2C8) [µM] | IC50 [3] [µM] | IC50 [4] [µM] | remaining at 10 min, 0.5 µM [5] [%] | IC50 (Cytochrome P450 2C19) [µM] | IC50 [6] [µM] | EC50 [7] [µM] | EC50 [8] [µM] | IC50 (Cytochrome P450 2C9) [µM] | Papp at 4 h, 100 µM [9] [×10⁻⁶ cm/s] | IC50 (Cytochrome P450 3A4) [µM] | IC90 [6] [µM] | IC50 [10] [µM] | half-life [11] [h] | half-life [12] [h] | inhibition (Homo sapiens) [%] | SMILES
12 | 23.9 | 2.8 | 2.22 | < 5 | 18.8 | < 5 | 51.1 | < 5 | 0.541 | > 30 | > 30 | < 5 | 1.1 | 7.83 |  |  |  |  |  | CC1(C)CCC(NCC(C)(C)CCN(C[C@H]2Cc3ccccc3CN2)[C@H]2CCCc3cccnc32)CC1
13 | 100 | 82.9 | 0.51 |  | > 16.7 |  | 10.7 |  | 0.129 | > 30 | > 30 |  | 26.4 |  |  |  |  |  |  | NC/C=C/CN(C[C@H]1Cc2ccccc2CN1)[C@H]1CCCc2cccnc21
14 | 39.9 | 0.2 | 0.434 |  | > 33.3 |  | 23.2 |  | 0.0547 | > 30 | > 30 |  | 4.6 |  |  |  |  |  |  | c1ccc2c(c1)CN[C@@H](CN(CCCCNC1CCSCC1)[C@H]1CCCc3cccnc31)C2
15 | 73.5 |  | 0.345 |  | > 16.7 |  | 3.32 |  | 0.0246 | > 30 | > 30 |  | 2 | > 20 |  |  |  |  |  | CC(C)(N)CCCN(C[C@H]1Cc2ccccc2CN1)[C@H]1CCCc2cccnc21
16 | 88.7 | 40.5 | 0.498 |  | > 16.7 |  | 51.2 |  | 0.069 | > 30 | > 30 |  |  | > 20 |  |  |  |  |  | CC(C)(CN)CCN(C[C@H]1Cc2ccccc2CN1)[C@H]1CCCc2cccnc21
17 | 21.8 | 5.7 | 6.21 | < 5 | 11.5 | < 5 | 49.8 | < 5 | 0.0363 | > 30 | > 30 | < 5 | 5.7 | 17.7 | 0.416 | 0.02 |  |  |  | CC(C)(CCN(C[C@H]1Cc2ccccc2CN1)[C@H]1CCCc2cccnc21)CNC1CCOCC1
18 |  |  |  |  | > 30 |  |  |  |  | > 30 |  |  | 0.6 |  | 0.0326 |  | 6 | 1 | < 10 | NCCCCN(C[C@H]1Cc2ccccc2CN1)[C@H]1CCCc2cccnc21
19 | 100 | 56.9 | 0.333 |  | 0.605 |  | 4.36 |  | 0.00926 | > 30 | > 30 |  | 3.9 |  |  |  |  |  |  | NC/C=C\CN(C[C@H]1Cc2ccccc2CN1)[C@H]1CCCc2cccnc21
20 | 76.1 | 25.5 | 0.197 |  | > 33.3 |  | 5.22 |  | > 33.3 | > 30 | > 30 |  | 26.8 | 10.8 |  |  |  |  |  | CC(C)(CCN)CN(C[C@H]1Cc2ccccc2CN1)[C@H]1CCCc2cccnc21
